Measurements published in patent US20250290117A1, “MOLECULAR PHENOTYPIC ANTIMICROBIAL SUSCEPTIBILITY TESTING” (priority 2024, published 2025).

Key:
pathogen of the specimen = assay: Molecular phenotypic antimicrobial susceptibility test with direct PCR at various incubation timepoints (Table 7); assay type: cell-based
Experimental: Detection of Molecular Phenotypic Antimicrobial Susceptibility. Disclosed herein are the methods for the detection of phenotypic antimicrobial susceptibility via molecular methods. The present invention describes how a specimen 100 with a known microbial load is incubated and then exposed to a panel of antimicrobial agents to determine sensitivity (prevention of growth) or resistance (allowance of growth) to the specific antimicrobial agents tested utilizing molecular methods. Sample Collection. Specimens 100 are collected from patients using sterile collection processes that are employed in routine clinical care. Specimens are transported to the testing facility in boric acid preservative. […] The process for pathogen isolation includes steps of harvesting the pathogen (e.g., via centrifugation), isolating pathogen DNA via a DNA isolation and/or purification kit, and performing PCR on the pathogen DNA via PCR components (e.g., primers, enzymes, buffers) as would be known to the skilled artisan. […] This aliquot is used for antimicrobial susceptibility testing if indicated based on the pathogen detection results. […] Specimens 100 with lower pathogen loads could also be utilized in the antibiotic susceptibility phase of testing with or without a longer incubation period. […] Antimicrobial solutions are prepared at known concentrations. The specific antimicrobials and their concentrations are selected based on the pathogen of interest and the described antimicrobial resistance breakpoints for that specimen pathogen and antimicrobial combination. These antimicrobials have been selected based on those commonly utilized by healthcare providers in routine clinical care for the specific type of suspected infection. The number and types of antimicrobials utilized can be customized based on the infection source, pathogen detected, patient-specific factors such as allergies or other health conditions (e.g., chronic kidney disease or concurrent medication use), or healthcare provider preferences such as antimicrobial availability or cost. The antimicrobial solutions are prepared in liquid culture media (such as Muller Hinton Broth) to achieve the desired antimicrobial concentration and are then stored at −80° C. until use. For a given specimen, each antimicrobial is tested at a single or multiple antimicrobial concentration(s) which is its established breakpoints for sensitivity. The antimicrobial solutions are prepared and plated out for each specific pathogen. […] This allows for evaluation of pathogen load when no antimicrobial is present. Specimen Exposure to Antimicrobial Agents. The 1 mL aliquot of the specimen 100 previously mixed with culture media and incubated is obtained. Using optical density measurements as a guide, the specimen 100 is diluted to 0.5 McFarland. […] Antimicrobial exposure plates are typically placed into an incubator for 12-16 hours. […] Nucleic Acid Amplification of Antimicrobial Agent Exposed Pathogens. The antimicrobial exposure plate is removed after the period of incubation. The specimen then undergoes a purification or lysis step. For example, the specimen may undergo a purification step (e.g., magnetic bead-based or other separation protocol to isolate genetic material). In another example, the specimen may undergo a cell lysis step. For example, buffer (e.g., lysis buffer) may be added and incubated in the thermal cycler for preparation for direct PCR. Next, the specimen may undergo a polymerase chain reaction (PCR) testing protocol, whereby a semi-quantitative PCR method is utilized. This may be completed either with or without a specific extraction protocol step. The pathogens can be individually targeted and detected, or a universal genetic sequence can be utilized to detect the antimicrobial susceptibility of the specimen as a whole. The control wells are utilized as a threshold for determining antimicrobial sensitivity or resistance. […] Antimicrobial Susceptibility Result Interpretation.

E. coli = assay: Molecular phenotypic antimicrobial susceptibility test, specimen with two detected pathogens incubated together without isolation; assay type: cell-based, Escherichia coli; details: E. coli in specimen with two detected pathogens (E. coli and M. morganii) incubated together; for Ct of Sensitive Breakpoint: Ct of controls (average) 15.93; for Molecular Antimicrobial Susceptibility Result: at sensitive breakpoint
Experimental: Detection of Molecular Phenotypic Antimicrobial Susceptibility. Disclosed herein are the methods for the detection of phenotypic antimicrobial susceptibility via molecular methods. The present invention describes how a specimen 100 with a known microbial load is incubated and then exposed to a panel of antimicrobial agents to determine sensitivity (prevention of growth) or resistance (allowance of growth) to the specific antimicrobial agents tested utilizing molecular methods.
Sample Collection. Specimens 100 are collected from patients using sterile collection processes that are employed in routine clinical care. Specimens are transported to the testing facility in boric acid preservative. Specimens 100 are subsequently divided into a first sample 104 and a second sample 108.
Preparation of the Specimens for Testing. The specimens 100 are put through a pathogen identification process using PCR technology (e.g., using the first sample 104). The process for pathogen isolation includes steps of harvesting the pathogen (e.g., via centrifugation), isolating pathogen DNA via a DNA isolation and/or purification kit, and performing PCR on the pathogen DNA via PCR components (e.g., primers, enzymes, buffers) as would be known to the skilled artisan. Simultaneously, an additional aliquot of the same specimen (e.g., the second sample 108) is placed with liquid culture media and incubated for 4-6 hours. This aliquot is used for antimicrobial susceptibility testing if indicated based on the pathogen detection results. After pathogen identification is completed and if more than 10,000 cells/mL of bacteria (e.g., eligible bacteria) are detected in the source specimen, the second sample 108 then enters the antimicrobial susceptibility phase of testing. Specimens 100 with lower pathogen loads could also be utilized in the antibiotic susceptibility phase of testing with or without a longer incubation period.
Preparation of Antimicrobial Susceptibility Testing Plates. Antimicrobial solutions are prepared at known concentrations. The specific antimicrobials and their concentrations are selected based on the pathogen of interest and the described antimicrobial resistance breakpoints for that specimen pathogen and antimicrobial combination. These antimicrobials have been selected based on those commonly utilized by healthcare providers in routine clinical care for the specific type of suspected infection. The number and types of antimicrobials utilized can be customized based on the infection source, pathogen detected, patient-specific factors such as allergies or other health conditions (e.g., chronic kidney disease or concurrent medication use), or healthcare provider preferences such as antimicrobial availability or cost.
The antimicrobial solutions are prepared in liquid culture media (such as Muller Hinton Broth) to achieve the desired antimicrobial concentration and are then stored at −80° C. until use. For a given specimen, each antimicrobial is tested at a single or multiple antimicrobial concentration(s) which is its established breakpoints for sensitivity. The antimicrobial solutions are prepared and plated out for each specific pathogen. This allows ease of use on the day of testing after defrosting the plate 112. Table 1, which illustrates the results of molecular phenotypic antimicrobial susceptibility testing when more than one organism is present in the source specimen, provides an example of an antimicrobial plate 112 prepared for this purpose. Of note, control wells containing only culture media are present on all plates 112. This allows for evaluation of pathogen load when no antimicrobial is present.
Specimen Exposure to Antimicrobial Agents. The 1 mL aliquot of the specimen 100 previously mixed with culture media and incubated is obtained. Using optical density measurements as a guide, the specimen 100 is diluted to 0.5 McFarland. […]

[1] = E. coli isolate 1189, antibiotic incubation time 4 hours
[2] = E. coli isolate 1189, antibiotic incubation time 4 hours, control average Ct […]
[3] = E. coli isolate 1189, antibiotic incubation time 6 hours
[4] = E. coli isolate 1189, antibiotic incubation time 6 hours, control average Ct 16.992
[5] = E. coli isolate 1189, antibiotic incubation time 8 hours
[6] = E. coli isolate 1189, antibiotic incubation time 8 hours, control average Ct […]
[7] = E. coli isolate 1189, antibiotic incubation time 10 hours
[8] = E. coli isolate 1189, antibiotic incubation time 10 hours, control average Ct 15.995
[9] = E. coli isolate 1189, antibiotic incubation time 12 hours
[10] = E. coli isolate 1189, antibiotic incubation time 12 hours, control average Ct 15.495
[11] = E. coli isolate 1189, antibiotic incubation time 14 hours
[12] = E. coli isolate 1189, antibiotic incubation time 14 hours, control average Ct 15.826
[13] = E. coli isolate 1189, antibiotic incubation time 16 hours
[14] = E. coli isolate 1189, antibiotic incubation time 16 hours, control average Ct 14.880

| SMILES | Molecular Antimicrobial Susceptibility Result (pathogen of the specimen; [1]) | Ct at Sensitive Breakpoint (pathogen of the specimen; [2]) | Molecular Antimicrobial Susceptibility Result (pathogen of the specimen; [3]) | Ct at Sensitive Breakpoint (pathogen of the specimen; [4]) | Molecular Antimicrobial Susceptibility Result (pathogen of the specimen; [5]) | Ct at Sensitive Breakpoint (pathogen of the specimen; [6]) | Molecular Antimicrobial Susceptibility Result (pathogen of the specimen; [7]) | Ct at Sensitive Breakpoint (pathogen of the specimen; [8]) | Molecular Antimicrobial Susceptibility Result (pathogen of the specimen; [9]) | Ct at Sensitive Breakpoint (pathogen of the specimen; [10]) | Molecular Antimicrobial Susceptibility Result (pathogen of the specimen; [11]) | Ct at Sensitive Breakpoint (pathogen of the specimen; [12]) | Molecular Antimicrobial Susceptibility Result (pathogen of the specimen; [13]) | Ct at Sensitive Breakpoint (pathogen of the specimen; [14]) | Ct of Sensitive Breakpoint (E. coli) | Molecular Antimicrobial Susceptibility Result (E. coli) |
| --- | --- | --- | --- | --- | --- | --- | --- | --- | --- | --- | --- | --- | --- | --- | --- | --- |
| CO/N=C(\C(=O)N[C@@H]1C(=O)N2C(C(=O)O)=C(CSc3nc(=O)c(=O)[nH]n3C)CS[C@H]12)c1csc(N)n1 [Ceftriaxone] | Resistant | 16.185 | Resistant | 16.838 | Resistant | 17.431 | Resistant | 16.347 | Resistant | 16.258 | Resistant | 14.724 | Resistant | 15.840 | 28.57 | Sensitive (Antimicrobial wells with pathogen load detected below the control wells (typically >2 cycle thresholds later) may be reported as Sensitive) |
| O=C(O)c1cn(C2CC2)c2cc(N3CCNCC3)c(F)cc2c1=O [Ciprofloxacin] | Sensitive (Antimicrobial wells with pathogen load detected below the control wells (typically >2 cycle thresholds later) may be reported as Sensitive) | 27.666 | Sensitive (Antimicrobial wells with pathogen load detected below the control wells (typically >2 cycle thresholds later) may be reported as Sensitive) | 27.144 | Sensitive (Antimicrobial wells with pathogen load detected below the control wells (typically >2 cycle thresholds later) may be reported as Sensitive) | 28.104 | Sensitive (Antimicrobial wells with pathogen load detected below the control wells (typically >2 cycle thresholds later) may be reported as Sensitive) | 27.715 | Sensitive (Antimicrobial wells with pathogen load detected below the control wells (typically >2 cycle thresholds later) may be reported as Sensitive) | 27.182 | Sensitive (Antimicrobial wells with pathogen load detected below the control wells (typically >2 cycle thresholds later) may be reported as Sensitive) | 27.128 | Sensitive (Antimicrobial wells with pathogen load detected below the control wells (typically >2 cycle thresholds later) may be reported as Sensitive) | 28.446 | 31.81 | Sensitive (Antimicrobial wells with pathogen load detected below the control wells (typically >2 cycle thresholds later) may be reported as Sensitive) |
| C[C@H]1COc2c(N3CCN(C)CC3)c(F)cc3c(=O)c(C(=O)O)cn1c23 [Levofloxacin] | Sensitive (Antimicrobial wells with pathogen load detected below the control wells (typically >2 cycle thresholds later) may be reported as Sensitive) | 27.130 | Sensitive (Antimicrobial wells with pathogen load detected below the control wells (typically >2 cycle thresholds later) may be reported as Sensitive) | 26.759 | Sensitive (Antimicrobial wells with pathogen load detected below the control wells (typically >2 cycle thresholds later) may be reported as Sensitive) | 27.068 | Sensitive (Antimicrobial wells with pathogen load detected below the control wells (typically >2 cycle thresholds later) may be reported as Sensitive) | 27.170 | Sensitive (Antimicrobial wells with pathogen load detected below the control wells (typically >2 cycle thresholds later) may be reported as Sensitive) | 26.835 | Sensitive (Antimicrobial wells with pathogen load detected below the control wells (typically >2 cycle thresholds later) may be reported as Sensitive) | 27.545 | Sensitive (Antimicrobial wells with pathogen load detected below the control wells (typically >2 cycle thresholds later) may be reported as Sensitive) | 27.791 | 32.72 | Sensitive (Antimicrobial wells with pathogen load detected below the control wells (typically >2 cycle thresholds later) may be reported as Sensitive) |
